Assay results as given in PMC12418751, “Structural and functional characterization of IdeC, a novel IgG-specific protease of Streptococcus canis” (Infection and Immunity, 2025).

Biological target: T1, IdeC (Immunoglobulin G degrading enzyme of S. canis) (Streptococcus canis, UniProt A0A3P5YAY8)
T1 construct: gene ide; full-length construct 30-339 as printed for the C94S crystal form), His6 tag from pQE30, E. coli M15 pREP, Ni-TED purified, ~35 kDa, mainly monomer; printed PDB entries are of C94S forms
Test: feline and canine IgG cleavage, SDS-PAGE
Type: biochemical
Settings: 2.5 uM inhibitor, 30 min preincubation at room temperature; IgG 37 C 2.5 h; cysteine protease inhibitor, irreversible (general statement)

T1 sequence (A0A3P5YAY8 entry or part of it): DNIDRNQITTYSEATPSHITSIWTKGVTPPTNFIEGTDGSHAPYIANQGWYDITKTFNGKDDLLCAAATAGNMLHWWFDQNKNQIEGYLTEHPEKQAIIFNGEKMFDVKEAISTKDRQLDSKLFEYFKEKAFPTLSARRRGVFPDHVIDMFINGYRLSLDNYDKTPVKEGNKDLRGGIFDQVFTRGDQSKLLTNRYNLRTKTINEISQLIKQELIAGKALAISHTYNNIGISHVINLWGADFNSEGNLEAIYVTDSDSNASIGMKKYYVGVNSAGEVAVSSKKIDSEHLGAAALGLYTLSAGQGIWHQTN

CC(C)C[C@H](NC(=O)[C@@H]1O[C@H]1C(=O)O)C(=O)NCCCCN=C(N)N [E-64]
feline and canine IgG cleavage, SDS-PAGE: the cysteine protease inhibitors Iodo and E-64 resulted in weaker cleavage product bands
